Measured values as given in US4436752A, “Treatment of gastric and gastro-duodenal disorders with derivatives of phenyl aliphatic carboxylic acids” (Roussel Uclaf, priority 1981, dated 1984).

Key:
[1] = system: ulcers in rats at the level of the stomach; test: Determination of the anti-ulcer activity (SHAY's technique, ulcers induced by ligature of the pylorus); type: in vivo; details: rat, per os, about 16 hours after treatment
Excerpt: (1) Determination of the anti-ulcer activity
The technique used is described by SHAY et al. in Gastroenterology, 5, 43 (1945).
SHAY's technique consists of inducing ulcers in rats at the level of the stomach by ligature of the pylorus.
The animals are anesthetized with ether. A longitudinal incision is made about 1 cm below the sternum, the glandular portion of the stomach and the duodenum are uncovered and a ligature is placed a few millimeters below the pylorus. The muscular plane is left as is and the skin is sutured by two clips.
The animals then immediately receive the dispersive or the substance to be studied per os in a volume of 0.5 ml/100 g, and are kept without food or drink until sacrificed by carotid section, effected about 16 hours after the treatment.
Before removing the stomach, a ligature is placed above the cardia.
The gastric fluid is collected in order to measure its pH.
The stomach is then opened along the greater curvature, rinsed in physiological serum and spread on graph paper in order to be examined under a binocular lens.
The severity of the lesions, graded from 0 to 4 for each stomach, is then evaluated macroscopically.
The average intensity of the ulcerations is determined for each lot of rats and the protection is calculated as the ratio of the mean index for the treated group to the mean index for the control group.
The pH of the gastric fluid is also determined for the treated animals and the control animals.

[2] = Determination of acute toxicity (LD50, oral route); details: mouse, in vivo, mice
Protocol: (2) Determination of acute toxicity
The lethal dose LD50 of the derivatives of Examples 1 and 2 was evaluated after administration by oral route to mice.

COc1ccc(C(=O)CC(O)C(=O)O)c(OC)c1OC (stereo not shown) [Example 1, 4-(2,3,4-trimethoxyphenyl)-4-oxo-2-hydroxy butanoic acid]
Ulceration % protection, with respect to the controls ([1]; 100 mg/kg): 41% | pH of the gastric fluid, treated animals ([1]; 100 mg/kg, control animals 2.7): 3.3 | LD50 [2]: > 1000 mg/kg

COc1ccc(C(=O)/C=C/C(=O)O)c(OC)c1OC [Example 2, (E) 4-(2,3,4-trimethoxyphenyl)-4-oxo-2-butenoic acid]
Ulceration % protection, with respect to the controls ([1]; 0.8 mg/kg): 17% | pH of the gastric fluid, treated animals ([1]; 0.8 mg/kg, control animals 3.5): 3.1 | Ulceration % protection, with respect to the controls ([1]; 4 mg/kg): 76% | pH of the gastric fluid, treated animals ([1]; 4 mg/kg, control animals 3.2): 3.7 | Ulceration % protection, with respect to the controls ([1]; 20 mg/kg): 99% | pH of the gastric fluid, treated animals ([1]; 20 mg/kg, control animals 3.2): 5.8 | LD50 [2]: ~300 mg/kg
